As a reminder, the IC50 is the midpoint of a concentration-inhibition curve.

In one experiment the test system is caspase-3 and -7. The experiment is described as follows: Caspase-Glo 3/7 assay in HepG2 cells. In kind it is cell-based. As to conditions: HepG2, 10 μM, 48 hours. The source says: (§1) This enhanced caspase activity led to a reduced cell viability of ˜20% (CellTiter-Glo, Promega) (FIGS. 8A and B), exceeding previously reported reductions in cell viability due to lentiviral over-expression of miR-122 in HepG2 cells.^13 An increased caspase 3/7 level is observed in HepG2 cells due to activation of the pro-apoptic miR-122 (FIG. 8A). This increase is more pronounced in HepG2 than Huh7 cells, due to the different basal miR-122 levels in both cell lines. […] Thus, a small molecule activator of miR-122, like compound 3, has therapeutic relevance towards the selective treatment of HCC.
Both HepG2 and Huh7 cells were passaged into a 96-well plate and grown to 70% confluency. The media was then removed and replaced with standard growth media supplemented with 3 (10 μM) or a DMSO control (1% final DMSO concentration in all wells) and incubated for 48 hours at 37° C. All incubations were conducted in triplicate to ensure statistical validity. The media was removed and cells were assayed with the Caspase-Glo 3/7 (Promega) kit according to the manufacturers directions and luminescence was measured using a Wallac VICTOR^3V luminometer with a measurement time of 1 s and a delay time of 2 s.

Another experiment relates to miR-21. Briefly: miR-21 luciferase reporter assay in HeLa-miR-21-Luc cells. The settings on record: 10 μM, 48 hours. In kind it is cell-based. The method, then:
Using the previously described HeLa-miR-21-Luc cell line (a stably transfected line harboring a miR-21 binding sequence in the 3′ UTR of a firefly luciferase gene),(9) cells were grown to 80% confluency (DMEM) and treated with either DMSO, the previously reported miR-21 inhibitor, or compounds 1 and 2 at 10 μM (1% DMSO final concentration). The cells were incubated for 48 hours at 37° C. (5% CO2) and then assayed with a Bright-Glo Luciferase Kit (Promega) and analyzed using a Wallac VICTOR^3V luminometer with a measurement time of 1 s and a delay time of 2 s (FIG. 4).

The next experiment has as its system Huh7 cells. Briefly: CellTiter-Glo cell viability in Huh7 cells. In kind it is cell-based, human. The settings on record: Huh7, exposure to compound.
Text: as §1
HepG2 and Huh7 cells were passaged into a 96-well plate and grown to 60% confluency. The media was then removed and replaced with standard growth media supplemented with increasing concentrations of the miR-122 small molecule modifiers (0-20 μM; 1% final DMSO concentration) and incubated for 48 hours at 37° C. Cellular viability was then assessed using a Cell-Titer Glo Assay (Promega) according to the manufacturers directions and luminescence was measured using a Wallac VICTOR^3V luminometer with a measurement time of 1 s and a delay time of 2 s.
On the technique in general: ATP-based viability assays read luminescence as a measure of living cells.

The subject of experiment [1] is miR-122. Briefly: quantitative RT PCR of mature miR-122 in Huh7 cells. In kind it is cell-based, human. The settings on record: Huh7, 10 μM, 48 hours. The method, then:
The activity of the small molecule modifiers was analyzed by quantitative RT PCR in order to measure their direct effects on miR-122 expression levels in Huh7 cells. […] All experiments were conducted in triplicate, and the data was normalized to a DMSO control.
Each treatment was conducted in triplicate to ensure statistical validity. Cells were then incubated at 37° C. for 48 hours (DMEM, 5% CO2). The media was removed, and cells were washed with PBS buffer (2×2 mL, pH 7.4) followed by RNA isolation with the mirPremier™ microRNA Isolation Kit (Aldrich). The RNA was quantified using a Nanodrop ND-1000 spectrophotometer and 10 ng of each RNA sample was reverse transcribed using the TaqMan™ microRNA Reverse Transcription Kit (Applied Biosystems) in conjunction with either the miR-122 or miR-21 TaqMan™ RT primer (16° C., 30 min; 42° C., 30 min; 85° C., 5 min). Quantitative Real Time PCR was conducted with a TaqMan™ 2× Universal PCR Master Mix and the appropriate TaqMan™ miRNA assay (Applied Biosystems) on a BioRad MyiQ RT-PCR thermocycler (1.3 μL RT PCR product; 95° C., 10 min; followed by 40 cycles of 95° C., 15 s; 60° C. 60 s). Threshold cycles were used to determine miRNA copy numbers, and the levels of miR-122 and miR-21 were compared via determination of threshold cycle (Ct) and conversion to copy number (copy number=10[(Ct−37.4)/−3.3]).^17 The data was then normalized to the DMSO control. The samples were also analyzed by real time PCR for the presence of pri-miR-122 transcript using the previously described primers (5′ […] 3′ (SEQ ID NO:5) and 5′ […] 3′ (SEQ ID NO:6); IDT DNA) and iQ SYBR Green Supermix for the real time PCR (95° C., 3 min; followed by 40 cycles of 95° C., 15 s; 60° C. 60 s).^14

The subject of the next experiment is HepG2 cells. Briefly: CellTiter-Glo cell viability in HepG2 cells. In kind it is cell-based. The settings on record: HepG2, 10 μM, 48 hours.
In experiment [2] the test system is miR-122. Briefly: psiCHECK-miR122 dual luciferase reporter assay in Huh7 cells. In kind it is cell-based, human. The source says: A miRNA small molecule modifier screen for miR-122 was developed based on the psiCHECK-2 (Promega) reporter plasmid (FIG. 9). This construct expresses both Renilla luciferase as well as firefly luciferase, allowing for the normalization of the signal to account for differential cellular viability and variability in transfection efficiency. The miR-122 target sequence was inserted downstream of the Renilla luciferase gene, between the PmeI and SgfI restriction sites. In another aspect of the invention, plasmids expressing luciferase or another reporter gene such as for example, fluorescent reporters (GFP and variants thereof, DsRed, etc.) or beta-galactosidase can be used to screen for small molecule modifiers of miR-122. The mi-122 target sequence may be upstream or downstream of the reporter gene. Multiple miR-122 target sites can also be inserted into or be present in the plasmid.
The presence of mature miR-122 will lead to a decrease in the Renilla luciferase signal (FIG. 1a). The ability to detect endogenous miR-122 was validated by transfecting the generated psiCHECK-miR122 construct into Huh7 and HeLa cells. After 48 hour incubation, the cells were assayed using a Dual Luciferase Assay Kit (Promega). In another embodiment, the cells can be incubated for about 24-96 hours. The Dual Luciferase Assay Kit provides a means to measure the amount of the luciferases by generating a luminescent signal. Using this assay the luminescence from the firefly luciferase reaction may be quenched while the luminescent reaction of Renilla luciferase can be activated. Other assays and procedures that can determine the amount of the one or more reporter genes or miR-122 expression, activity or function can be used. An example of another assay is Dual-Glo Assay (Promega).
The psiCHECK-miR122 vector was then employed in a small molecule screen in Huh7 cells to discover modifiers of miR-122 function. Other cells that express miR-122 such as HepG2 and Hep3B can be used in addition to or instead of Huh7 cells. An increase in the relative Renilla luciferase signal indicates a miR-122 inhibitor, while a reduction in the luciferase signal indicates a miR-122 activator. A genus of compounds that may have activity as modifiers of miR122 function are the Diversity Set II (1364 compounds) from the NCI Developmental Therapeutics Program was screened using Huh7 cells containing the psiCHECK-miR122 reporter. Cells were exposed to the small molecules and the relative luciferase signal was measured after 48 hours using a Dual Luciferase Assay Kit (Promega). In another embodiment the cells can be exposed to the small molecules for about 24-96 hours. As explained above, other assays and procedures that can determine the amount of the one or more reporter genes or miR-122 expression, activity or function can be used.
The analogs were screened for activity using the previously described miR-122 assay. All cells were treated with 10 μM of a compound and experiments were performed in triplicate to ensure statistical validity. The data was normalized to a 1% DMSO control and is reported in relative luciferase units (RLU). The standard deviation was calculated from three independent assays. Some analogs of miR-122 inhibitor compound 1 are:
Huh7 and HeLa cells were transfected at approximately 60% confluency with either the psiCHECK-Control plasmid (the original psiCHECK-2 plasmid containing no known miRNA binding site) or the psiCHECK-miR122 plasmid (0.5 μg) using X-tremGENE transfection reagent (3:2 reagent/DNA ratio; Roche) in Opti-Mem media (Invitrogen). All transfections were performed in triplicate for statistical analysis. The cells were incubated at 37° C. for 4 hours followed by the replacement of transfection media with standard DMEM growth media. After 48 hours of incubation the media was removed, cells were lysed and assayed with a Dual Luciferase Assay Kit (Promega) using a Wallac VICTOR^3V luminometer with a measurement time of 1 s and a delay time of 2 s. […]
(Reporter assays use an easily measured gene product as a stand-in for the process of interest.)

Structures are written as SMILES.

With `CN(C)CCN1C(=O)c2cccc3cc(N)cc(c23)C1=O` [Compound 3], in the experiment with caspase-3 and -7, the “increase in the activity of caspase-3 and -7” value was about 20 fold. The “activity in miRNA-21 reporter (luciferase signal)” value in the experiment with miR-21 was “No effect”. Besides, in the experiment with Huh7 cells, the “cell viability (in words)” value is on record as “only slightly affected”. In the experiment with miR-122 [1], the “increase in miR-122 expression levels” value is recorded as 438%. Further, the reduced cell viability with HepG2 cells was about 20%. Further, the IC50 in the experiment on miR-122 [2] (Homo sapiens, Huh-7, Huh7, calculated from FIG. 5, read-out: IC50 (miR-122 activator, luciferase dose response)) was 370 ± 20 nM. Moreover, the “reduction of the Renilla luciferase signal” value in the experiment on miR-122 [2] (Huh7, psiCHECK-miR122, 10 μM) is given as 7 fold. In addition, in the experiment on miR-122 [2] (Huh7, psiCHECK-miR122, 10 μM, mean ± SD of three independent assays), the “relative luciferase units (RLU) normalized to a DMSO control” value amounted to 0.11±0.02 RLU.

The record behind these values is patent US20130005759A1, “SMALL MOLECULE MODIFIERS OF MICRORNA MIR-122” (North Carolina State University, priority 2010, published 2013).
